# pIC50: −log10 of the molar value. Where two headings read alike, the source gives them in different places.
# What was measured:
# [1] = tested on: hWB; assay: hWB; type: cell-based; details: printed as "hWB" value in the pMLKL IC50 column; no method given
# [2] = biological target: T1, MDR1 P-glycoprotein (P-gp) (Homo sapiens, UniProt P08183); assay: Transporter assay, bi-directional transport, MDCK-MDR1 cells; type: in vitro ADME; details: human, MDCK-MDR1, 0.1 uM, basolateral to apical / apical to basolateral, >2 = substrate, read-out: PGP (efflux ratio)
# T1 construct: host or cells: MDCK (MDCK-MDR1)
# T1 sequence (P08183 whole entry): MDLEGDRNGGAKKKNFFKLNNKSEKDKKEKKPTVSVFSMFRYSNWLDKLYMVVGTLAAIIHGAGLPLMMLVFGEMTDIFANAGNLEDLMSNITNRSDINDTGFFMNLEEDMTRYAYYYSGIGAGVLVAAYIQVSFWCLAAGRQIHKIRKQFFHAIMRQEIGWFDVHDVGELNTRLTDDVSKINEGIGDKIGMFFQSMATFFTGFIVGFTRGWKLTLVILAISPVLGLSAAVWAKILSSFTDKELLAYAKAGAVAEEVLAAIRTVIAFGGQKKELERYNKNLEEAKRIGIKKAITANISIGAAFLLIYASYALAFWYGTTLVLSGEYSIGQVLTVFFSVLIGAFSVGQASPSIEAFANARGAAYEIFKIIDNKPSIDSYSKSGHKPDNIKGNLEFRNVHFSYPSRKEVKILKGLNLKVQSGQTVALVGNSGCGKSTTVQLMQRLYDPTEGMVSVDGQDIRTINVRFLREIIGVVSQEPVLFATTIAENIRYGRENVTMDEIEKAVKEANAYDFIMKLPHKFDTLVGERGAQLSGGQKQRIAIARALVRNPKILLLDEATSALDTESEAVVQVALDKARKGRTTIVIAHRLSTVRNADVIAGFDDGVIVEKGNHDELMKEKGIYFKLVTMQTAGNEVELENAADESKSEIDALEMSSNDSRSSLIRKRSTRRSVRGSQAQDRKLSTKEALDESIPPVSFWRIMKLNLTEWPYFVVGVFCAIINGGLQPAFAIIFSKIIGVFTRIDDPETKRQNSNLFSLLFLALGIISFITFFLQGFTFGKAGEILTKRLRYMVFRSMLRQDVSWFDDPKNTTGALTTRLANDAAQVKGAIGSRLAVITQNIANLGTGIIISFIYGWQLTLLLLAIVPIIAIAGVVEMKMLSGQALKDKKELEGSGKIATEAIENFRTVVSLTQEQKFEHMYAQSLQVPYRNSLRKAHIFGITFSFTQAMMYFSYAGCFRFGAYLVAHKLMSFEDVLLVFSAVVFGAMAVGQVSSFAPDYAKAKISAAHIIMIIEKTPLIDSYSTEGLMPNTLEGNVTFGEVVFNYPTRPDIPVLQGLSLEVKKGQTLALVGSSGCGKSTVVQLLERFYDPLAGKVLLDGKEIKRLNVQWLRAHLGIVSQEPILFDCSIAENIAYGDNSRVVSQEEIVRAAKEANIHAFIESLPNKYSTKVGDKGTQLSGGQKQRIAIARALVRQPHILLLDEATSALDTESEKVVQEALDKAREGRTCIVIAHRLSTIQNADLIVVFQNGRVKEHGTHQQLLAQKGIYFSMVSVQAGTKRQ
# Protocol: (§1) Compounds were assessed as substrates of MDR1 P-glycoprotein (P-gp) and mouse Breast Cancer Resistance Protein (mBcrp) at 0.1 uM, for 2 hours, in bi-directional transport assays using recombinant MDCK cell lines as described previously (Feng et al. Drug Metabolism and Disposition 2008, Vol. 36:268-275). MDCK-MDR1 and MDCK-mBcrp cells were acquired from the National Institutes of Health (Bethesda, MID) and the Netherlands Cancer Institute respectively, and used under license agreement. Data are expressed as efflux ratios, where transport across the cell monolayer in the basolateral to apical direction is divided by transport in the apical to basolateral direction. Efflux ratios >2 indicate the test compound is a substrate of the transporter tested.
# [3] = tested on: MLKL phosphorylation (pMLKL) in HT29-L23 cells; assay: MLKL Phosphorylation High-Content Assay; type: cell-based; details: necroptosis induced with human TNFα, SMAC mimetic and Z-VAD, 6 h, read-out: LE pMLKL HC IC50
# Method in brief: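 HT29-L23 cells incubated 6 h at 37° C before detection of phospho-MLKL by immunostaining with anti-phospho-MLKL antibody (1:1000 in PBS/0.1% BSA, overnight at 4° C). Readout by high-content imaging with compartmental image analysis.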
# [4] = biological target: T2, mouse Breast Cancer Resistance Protein (mBcrp) (Mus musculus, UniProt Q7TMS5); assay: Transporter assay, bi-directional transport, MDCK-mBcrp cells; type: in vitro ADME; details: mouse, basolateral to apical / apical to basolateral, >2 = substrate, read-out: BCRP (efflux ratio)
# T2 construct: host or cells: MDCK (MDCK-mBcrp)
# T2 sequence (Q7TMS5 1-657): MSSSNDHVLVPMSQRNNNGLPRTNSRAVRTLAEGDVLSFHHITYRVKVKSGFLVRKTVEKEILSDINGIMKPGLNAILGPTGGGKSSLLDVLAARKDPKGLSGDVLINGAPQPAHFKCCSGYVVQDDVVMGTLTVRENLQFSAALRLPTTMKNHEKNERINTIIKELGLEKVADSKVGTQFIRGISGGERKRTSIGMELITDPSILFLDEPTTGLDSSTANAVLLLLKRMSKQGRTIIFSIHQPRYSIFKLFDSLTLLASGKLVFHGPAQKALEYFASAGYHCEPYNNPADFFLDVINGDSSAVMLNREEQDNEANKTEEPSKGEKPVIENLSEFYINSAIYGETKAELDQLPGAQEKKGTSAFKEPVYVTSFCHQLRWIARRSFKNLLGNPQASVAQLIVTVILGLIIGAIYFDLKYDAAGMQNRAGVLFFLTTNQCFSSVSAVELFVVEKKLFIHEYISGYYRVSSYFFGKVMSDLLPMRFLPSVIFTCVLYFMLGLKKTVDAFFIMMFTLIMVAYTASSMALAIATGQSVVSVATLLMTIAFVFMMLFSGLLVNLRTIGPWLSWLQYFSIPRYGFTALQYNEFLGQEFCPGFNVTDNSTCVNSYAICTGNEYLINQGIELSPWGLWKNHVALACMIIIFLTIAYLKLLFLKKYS
# Protocol: as §1
SMILES,"efflux ratio at 2 h, 0.1 uM [2]","efflux ratio at 2 h, 0.1 uM [4]",pIC50 [1],pIC50 [3],pIC50 ([3]; Homo sapiens)
"CC(O)(c1ccc(F)cn1)C(F)(F)CCOc1c(F)ccc(-c2ccn3nc(N)nc3c2)c1F (single isomer, unassigned) [Example 28, 5-(3-(2-amino-[1,2,4]triazolo[1,5-a]pyridin-7-yl)-2,6-difluorophenoxy)-3,3-difluoro-2-(5-fluoropyridin-2-yl)pentan-2-ol]",,,7.09,,
"Nc1nc2cc(-c3ccc(F)c(OCCC(F)(F)C(O)c4ccc(F)cn4)c3F)ccn2n1 (single isomer, unassigned) [Example 34, 4-(3-(2-amino-[1,2,4]triazolo[1,5-a]pyridin-7-yl)-2,6-difluorophenoxy)-2,2-difluoro-1-(5-fluoropyridin-2-yl)butan-1-ol]",2.4,7,,,8.10
"CC(O)(c1ccccc1)C(F)(F)CCOc1c(F)ccc(-c2ccn3nc(N)nc3c2F)c1F (single isomer, unassigned) [Example 38, 5-(3-(2-amino-8-fluoro-[1,2,4]triazolo[1,5-a]pyridin-7-yl)-2,6-difluorophenoxy)-3,3-difluoro-2-phenylpentan-2-ol]",2.1,5.1,,,9.52
"C[C@](O)(c1ccc(F)cc1)C(F)(F)CCOc1c(F)ccc(-c2ccn3nc(N)nc3c2)c1F (single isomer, unassigned) [Example 49, 5-(3-(2-amino-[1,2,4]triazolo[1,5-a]pyridin-7-yl)-2,6-difluorophenoxy)-3,3-difluoro-2-(4-fluorophenyl)pentan-2-ol]",1.5,4,,,7.47
"CC(O)(c1ccc(F)cc1)C(F)(F)CCOc1c(Cl)ccc(-c2ccn3nc(N)nc3c2)c1F (single isomer, unassigned) [Example 52, 5-(3-(2-amino-[1,2,4]triazolo[1,5-a]pyridin-7-yl)-6-chloro-2-fluorophenoxy)-3,3-difluoro-2-(4-fluorophenyl)pentan-2-ol]",1.5,1.7,,9.30,
"CC(O)(c1ccc(F)cc1)C(F)(F)CCOc1ccc(Cl)c(-c2ccn3nc(N)nc3c2)n1 (single isomer, unassigned) [Example 80, 5-((6-(2-amino-[1,2,4]triazolo[1,5-a]pyridin-7-yl)-5-chloropyridin-2-yl)oxy)-3,3-difluoro-2-(4-fluorophenyl)pentan-2-ol]",5.9,5.6,,8.17,

# Further lines, with some results ahead:
"efflux ratio at 2 h, 0.1 uM [2]","efflux ratio at 2 h, 0.1 uM [4]",SMILES,pIC50 [1],pIC50 [3],pIC50 ([3]; Homo sapiens)
5.3,1.4,"CC(O)(c1ccc(F)cn1)C(F)(F)CCOc1c(Cl)ccc(-c2ccn3nc(N)nc3c2)c1F (single isomer, unassigned) [Example 31, 5-(3-(2-amino-[1,2,4]triazolo[1,5-a]pyridin-7-yl)-6-chloro-2-fluorophenoxy)-3,3-difluoro-2-(5-fluoropyridin-2-yl)pentan-2-ol]",,8.70,
1.7,4.8,"CC(O)(c1ccccc1)C(F)(F)CCOc1c(F)ccc(-c2ccn3nc(N)nc3c2)c1F (single isomer, unassigned) [Example 40, 5-(3-(2-amino-[1,2,4]triazolo[1,5-a]pyridin-7-yl)-2,6-difluorophenoxy)-3,3-difluoro-2-phenylpentan-2-ol]",,9.22,
1.6,2.4,"C[C@@](O)(c1ccc(F)cc1)C(F)(F)CCOc1c(F)ccc(-c2ccn3nc(N)nc3c2)c1F (single isomer, unassigned) [Example 50, 5-(3-(2-amino-[1,2,4]triazolo[1,5-a]pyridin-7-yl)-2,6-difluorophenoxy)-3,3-difluoro-2-(4-fluorophenyl)pentan-2-ol]",,,9.40

# Source: patent publication US20260217711A1, “TRIAZOLOPYRIDINYL ETHER LINKED COMPOUNDS AS KINASE INHIBITORS” (Bristol-Myers Squibb Company, priority 2023, published 2026)
